Results taken from article PMC11996864, “A small-molecule inhibitor of BCL10-MALT1 interaction abrogates progression of diffuse large B cell lymphoma” (The Journal of Clinical Investigation, 2025).
“And” between values parts separate entries of the source, which are not always exact repeats. Equal values may be shown once.

Tests used:
[1] = system: IL-2 secretion from primary mouse splenocytes; test: Secreted IL-2 ELISA, stimulated primary splenocytes; format: cell-based; conditions: for IL-2 protein level (% of control): Suppl Fig. 4B
Description: (§1) Plasmids. Plasmids for transfection were verified with Sanger Sequencing. Unless otherwise indicated, plasmids were made by subcloning cDNA fragments from constructs described in previous publications, as noted, and/or site directed mutagenesis. Plasmids in the pcDNA3 or pcDNA3.1 backbone include HA-MALT1(isoform B) (2), HA-MALT1(DD+Ig1-2) (aa 1- […]
MALT1(Ig1-2) V189R, HA-MALT1(Ig1-2) W203_Q205delinsAAA (Vector Builder), HA-MALT1(Ig1-2) H257_Q259delinsAAA (Vector Builder), HA-MALT1(Ig1-2)
P254_P256delinsAAA (Vector Builder), HA-MALT1(Ig1-2) H269_T271delinsAAA (Vector Builder), HA-MALT1(Ig1-2) K272_L274delinsAAA (Vector Builder), HA-MALT1 V189R (Vector Builder), HA-MALT1 V81R, HA-BCL10 (GeneCopoeia, Cat# M0769-M07), HA-BCL10 E53R, Myc-BCL10 (previously called CIPER) (3), Myc-BCL10 E53R, Myc-RICK (4), Myc-MAVS (subcloned from FLAG-MAVS (5)), and empty vector pCDNA3.1HA as a control.
ELISA-based protein-protein interaction assay. On a high-binding 96-well ELISA microplate (Greiner Cat# 655061), 100 ng of His-tagged recombinant human full-length BCL10 protein (Novus Cat# NBP1-99064) or in 100 µl PBS was allowed to adhere overnight at 4°C. The plate was blocked with 5% BSA in PBS for 1 hour at room temperature. After washing twice with PBS-T, a mixture of 100 ng of GST-tagged recombinant human full-length MALT1 protein (Novus Biologicals Cat# H00010892-P01) and compound that was preincubated for 1 hour in 100 μl PBS was added to the plate for 1 hour at room temperature. After washing three times with PBS-T, anti-MALT1 antibody (Cell Signaling Technology, Cat# 2494) in 5% BSA in PBS was added at 1:1000 dilution for 1 hour at room temperature. After washing three times with PBS-T, HRP-conjugated secondary antibody in 5% BSA in PBS was added at 1:5000 dilution for 1 hour at room temperature. After washing three times with PBS-T, 100 µl of 3,3’,5,5’-tetramethylbenzidine (TMB) substrate solution (Thermo Scientific, Cat# 34028) was added for up to 15 minutes, and 100 µl of 2 M sulfuric acid was added to stop the reaction. The plate was read at 450 nm using a spectrophotometer (Molecular Devices SpectraMax i3). The MyoD1/ID ELISA was performed as above except that 100 ng of recombinant human His-tagged MyoD1 (Proteintech, Cat# Ag13186) was plated overnight at 4°C prior to the addition of 100 ng of recombinant human GST-ID1 (Proteintech, Cat# Ag13359) preincubated to with compounds. The anti-GST antibody (clone 26H1, Cell signaling Technology, Cat #2624) was used to detect bound ID1.
Cytokine ELISAs. Cytokines in cell culture supernatants were measured 20-24h after treatment with 0, 0.01, 0.03, 0.1, 0.3, 1, or 3 µM of compounds using the following ELISA kits according to the manufacturer’s instructions: Human IL-2 ELISA (BioLegend Cat# 431804), Human IL-6 ELISA (BioLegend Cat# 430504), and Human IL-10 ELISA (BioLegend Cat# 430604). TMD8 and OCI-Ly3 cells were treated with specific doses of compounds in serum-free media for 20 hours. Jurkat T cells were pretreated with specific doses of compounds for 8 hours in serum-free media, then stimulated with PMA/ionomycin for 16 hours prior to the collection of supernatants.
Mouse splenocytes were isolated from spleens of C57/BL6 mice by passing spleens through a 70 micron filter followed by red blood cell lysis using ACK lysing buffer (Quality Biologics, Cat# 118-156-101). […]
(§2) Mouse T-Activator CD3/C28. Supernatant was collected at 24 hours and mouse IL-2 levels were analyzed via ELISA (R&D Systems, Cat# DY402-05).

OCI-Ly3 cells = test: Cell proliferation, trypan blue cell count; format: cell-based, human; conditions: OCI-Ly3, single 1 μM dose, 12 days, result in words
Description: Cell proliferation, viability, and apoptosis assays. Starting with ~20,000 DLBCL cells in 5% FBS
at day 0, cell number was counted using the trypan blue dye exclusion method with Vi-CELL cell

BCL10-MALT1 interaction = target: T1, BCL10-MALT1 interaction (Homo sapiens, UniProt Q9UDY8); test: ELISA-based BCL10-MALT1 protein-protein interaction assay; conditions: MALT1 preincubated 1 hour with compound; read-out: IC50, inhibition of MALT1 binding to immobilized BCL10
T1 construct: GST-tagged recombinant human full-length MALT1 protein in solution; purchased Novus Biologicals H00010892-P01 (MALT1); NBP1-99064 (BCL10)
Description: A 96-well ELISA was employed, whereby His-tagged full-length BCL10 protein was immobilized in wells and exposed to GST-tagged recombinant human full-length MALT1 protein in solution, followed by detection with anti-MALT1 antibody. Details are provided in Supplemental Methods.
as §1
MALT1(Ig1-2) V189R, HA-MALT1(Ig1-2) W203_Q205delinsAAA (Vector Builder), HA-MALT1(Ig1-2) H257_Q259delinsAAA (Vector Builder), HA-MALT1(Ig1-2) […]
ELISA-based protein-protein interaction assay. […] The plate was read at 450 nm using a spectrophotometer (Molecular Devices SpectraMax i3). […]
Cytokine ELISAs. Cytokines in cell culture supernatants were measured 20-24h after treatment with 0, 0.01, 0.03, 0.1, 0.3, 1, or 3 µM of compounds using the following ELISA kits according to the manufacturer’s instructions: Human IL-2 ELISA (BioLegend Cat# 431804), Human IL-6 ELISA (BioLegend Cat# 430504), and Human IL-10 ELISA (BioLegend Cat# 430604). […]
as §2

TMD8 cells = test: IL6 and IL10 mRNA, qRT-PCR; format: cell-based, human; conditions: TMD8, 1 μM; for IL6 and IL10 mRNA levels: 24 hours, result in words
Protocol: TMD8 cells were treated with small molecule inhibitors for 24 with cultures conditions described above except that FBS was 5%. OCI-Ly3 were treated with inhibitors in serum free media for 24 hours. Total RNA extraction from cell lines was performed using RNeasy Plus Mini Kit (Qiagen, Cat# 74136). […]
Kit. RNA was transcribed into cDNA using High-Capacity cDNA Reverse Transcription Kit (Applied Biosystems, Cat# 4368814) according to manufacturer’s instructions. RT-PCR was performed using TaqMan Universal PCR Master Mix (Applied Biosystems, Cat# 4304437) and run on a StepOnePlus Real-Time PCR machine (Applied Biosystems). The following probes from ThermoFisher Scientific were used for qRT-PCR: IL2 TaqMan probe Hs00174114, IL6 TaqMan

T1 sequence (Q9UDY8 1-813 isoform Q9UDY8-2): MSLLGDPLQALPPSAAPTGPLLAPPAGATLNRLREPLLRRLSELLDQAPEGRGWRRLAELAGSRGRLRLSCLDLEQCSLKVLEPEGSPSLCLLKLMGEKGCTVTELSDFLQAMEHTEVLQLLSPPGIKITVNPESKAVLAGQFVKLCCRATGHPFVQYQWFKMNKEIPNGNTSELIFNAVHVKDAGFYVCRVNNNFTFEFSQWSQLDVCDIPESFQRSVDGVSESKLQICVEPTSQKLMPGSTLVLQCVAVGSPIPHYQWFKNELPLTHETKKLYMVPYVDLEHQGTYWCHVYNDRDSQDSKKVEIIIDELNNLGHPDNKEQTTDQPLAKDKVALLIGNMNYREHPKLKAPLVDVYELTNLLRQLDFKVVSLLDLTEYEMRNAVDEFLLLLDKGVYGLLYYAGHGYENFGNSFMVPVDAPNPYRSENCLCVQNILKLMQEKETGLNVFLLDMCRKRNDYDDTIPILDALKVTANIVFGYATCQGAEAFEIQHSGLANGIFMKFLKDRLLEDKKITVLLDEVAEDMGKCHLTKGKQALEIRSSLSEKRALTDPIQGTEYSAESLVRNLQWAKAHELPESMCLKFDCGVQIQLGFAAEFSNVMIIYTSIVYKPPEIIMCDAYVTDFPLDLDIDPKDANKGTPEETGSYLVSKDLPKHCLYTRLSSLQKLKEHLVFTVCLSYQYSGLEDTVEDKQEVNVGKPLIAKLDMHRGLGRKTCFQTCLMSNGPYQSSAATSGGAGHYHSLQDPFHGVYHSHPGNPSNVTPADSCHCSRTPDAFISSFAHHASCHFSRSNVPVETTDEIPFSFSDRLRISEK

| SMILES | IL-2 protein level (% of control) ([1]; CD3/CD28 treated, 1 uM) | IL-2 protein level (% of control) ([1]; PMA/Iono treated, 1 uM) | IL-2 secretion from primary mouse splenocytes ([1]; 1 μM, PMA/Iono or anti-CD3/CD28, result in words) | IL-2 protein level (% of control) ([1]; CD3/CD28 treated) | IL-2 protein level (% of control) ([1]; PMA/Iono treated) | expansion of culture (proliferation) (OCI-Ly3 cells) | IC50 (BCL10-MALT1 interaction) [µM] | IL-10 mRNA (normalized) (TMD8 cells) | IL6 and IL10 mRNA levels (TMD8 cells) |
| --- | --- | --- | --- | --- | --- | --- | --- | --- | --- |
| CN1CCCC(CN2c3ccccc3Sc3ccccc32)C1 (stereo not shown) [Mepazine, mepazine, reference compound] | 96.0182 % of control and 76.5551 % of control | 66.5904 % of control and 66.2291 % of control |  |  |  |  |  |  |  |
| O=S(=O)(NCc1ccc2c(c1)OCO2)c1ccc(Cc2ccc(S(=O)(=O)NCc3ccc4c(c3)OCO4)cc2)cc1 [M1i-124] |  |  | reduced IL-2 secretion | 50.4652 % of control and 31.9351 % of control and 38.7736 % of control | 60.6294 % of control and 65.2902 % of control and 36.6638 % of control | significant reduction in the expansion | 16 | 0.19 and 0.23 and 0.25 and 0.2 and 0.18 and 0.32 | significantly decrease IL6 and IL10 mRNA levels |
| COc1ccc(CNS(=O)(=O)c2ccc(Cc3ccc(S(=O)(=O)NCc4ccc(OC)cc4)cc3)cc2)cc1 [M1i-124d1] |  |  |  |  |  | significant reduction in the expansion | 34 | 0.31 and 0.33 and 0.37 and 0.53 and 0.28 and 0.52 | significantly decrease IL6 and IL10 mRNA levels |
